Experiments:
[1] = biological target: Vascular endothelial growth factor receptor 2 (Homo sapiens, UniProt P35968); assay: Inhibition of VEGFR2 (unknown origin) assessed as inhibition of 33[Pi] incorporation after 60 mins by scintillation counting
[2] = biological target: Epidermal growth factor receptor (Homo sapiens, UniProt P00533); assay: Inhibition of wild type EGFR (unknown origin) assessed as inhibition of 33[Pi] incorporation after 60 mins by scintillation counting
Epidermal growth factor receptor, sequence (P00533 whole entry): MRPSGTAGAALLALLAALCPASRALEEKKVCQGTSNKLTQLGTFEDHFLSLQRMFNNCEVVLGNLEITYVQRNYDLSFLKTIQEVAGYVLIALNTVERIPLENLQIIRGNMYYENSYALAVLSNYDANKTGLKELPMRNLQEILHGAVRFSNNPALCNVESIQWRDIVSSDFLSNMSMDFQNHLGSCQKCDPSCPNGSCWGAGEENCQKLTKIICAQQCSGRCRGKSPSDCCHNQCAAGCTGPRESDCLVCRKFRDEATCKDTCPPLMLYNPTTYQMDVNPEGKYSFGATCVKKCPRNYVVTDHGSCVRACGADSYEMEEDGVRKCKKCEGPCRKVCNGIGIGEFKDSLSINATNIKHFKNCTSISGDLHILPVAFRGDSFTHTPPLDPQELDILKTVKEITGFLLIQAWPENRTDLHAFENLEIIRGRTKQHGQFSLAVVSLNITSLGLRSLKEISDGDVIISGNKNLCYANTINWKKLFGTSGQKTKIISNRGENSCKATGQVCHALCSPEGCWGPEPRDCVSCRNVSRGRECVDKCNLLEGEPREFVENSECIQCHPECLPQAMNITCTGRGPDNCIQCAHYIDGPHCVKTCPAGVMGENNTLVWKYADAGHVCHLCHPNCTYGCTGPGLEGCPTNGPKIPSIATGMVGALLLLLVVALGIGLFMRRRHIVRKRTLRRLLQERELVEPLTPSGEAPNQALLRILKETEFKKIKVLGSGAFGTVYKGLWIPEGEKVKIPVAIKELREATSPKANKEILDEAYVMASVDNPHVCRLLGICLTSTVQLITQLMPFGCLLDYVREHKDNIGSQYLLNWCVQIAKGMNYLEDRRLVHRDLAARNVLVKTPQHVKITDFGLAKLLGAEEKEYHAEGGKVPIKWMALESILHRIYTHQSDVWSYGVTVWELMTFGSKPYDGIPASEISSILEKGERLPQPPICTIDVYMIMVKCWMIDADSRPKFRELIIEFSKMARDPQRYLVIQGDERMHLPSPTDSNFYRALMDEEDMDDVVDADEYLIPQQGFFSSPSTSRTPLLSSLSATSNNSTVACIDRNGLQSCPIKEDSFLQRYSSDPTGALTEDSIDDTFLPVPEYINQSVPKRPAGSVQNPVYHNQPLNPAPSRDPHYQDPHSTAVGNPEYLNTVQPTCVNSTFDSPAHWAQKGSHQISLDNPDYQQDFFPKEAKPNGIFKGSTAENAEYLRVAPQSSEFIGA

Vascular endothelial growth factor receptor 2, sequence (P35968 whole entry): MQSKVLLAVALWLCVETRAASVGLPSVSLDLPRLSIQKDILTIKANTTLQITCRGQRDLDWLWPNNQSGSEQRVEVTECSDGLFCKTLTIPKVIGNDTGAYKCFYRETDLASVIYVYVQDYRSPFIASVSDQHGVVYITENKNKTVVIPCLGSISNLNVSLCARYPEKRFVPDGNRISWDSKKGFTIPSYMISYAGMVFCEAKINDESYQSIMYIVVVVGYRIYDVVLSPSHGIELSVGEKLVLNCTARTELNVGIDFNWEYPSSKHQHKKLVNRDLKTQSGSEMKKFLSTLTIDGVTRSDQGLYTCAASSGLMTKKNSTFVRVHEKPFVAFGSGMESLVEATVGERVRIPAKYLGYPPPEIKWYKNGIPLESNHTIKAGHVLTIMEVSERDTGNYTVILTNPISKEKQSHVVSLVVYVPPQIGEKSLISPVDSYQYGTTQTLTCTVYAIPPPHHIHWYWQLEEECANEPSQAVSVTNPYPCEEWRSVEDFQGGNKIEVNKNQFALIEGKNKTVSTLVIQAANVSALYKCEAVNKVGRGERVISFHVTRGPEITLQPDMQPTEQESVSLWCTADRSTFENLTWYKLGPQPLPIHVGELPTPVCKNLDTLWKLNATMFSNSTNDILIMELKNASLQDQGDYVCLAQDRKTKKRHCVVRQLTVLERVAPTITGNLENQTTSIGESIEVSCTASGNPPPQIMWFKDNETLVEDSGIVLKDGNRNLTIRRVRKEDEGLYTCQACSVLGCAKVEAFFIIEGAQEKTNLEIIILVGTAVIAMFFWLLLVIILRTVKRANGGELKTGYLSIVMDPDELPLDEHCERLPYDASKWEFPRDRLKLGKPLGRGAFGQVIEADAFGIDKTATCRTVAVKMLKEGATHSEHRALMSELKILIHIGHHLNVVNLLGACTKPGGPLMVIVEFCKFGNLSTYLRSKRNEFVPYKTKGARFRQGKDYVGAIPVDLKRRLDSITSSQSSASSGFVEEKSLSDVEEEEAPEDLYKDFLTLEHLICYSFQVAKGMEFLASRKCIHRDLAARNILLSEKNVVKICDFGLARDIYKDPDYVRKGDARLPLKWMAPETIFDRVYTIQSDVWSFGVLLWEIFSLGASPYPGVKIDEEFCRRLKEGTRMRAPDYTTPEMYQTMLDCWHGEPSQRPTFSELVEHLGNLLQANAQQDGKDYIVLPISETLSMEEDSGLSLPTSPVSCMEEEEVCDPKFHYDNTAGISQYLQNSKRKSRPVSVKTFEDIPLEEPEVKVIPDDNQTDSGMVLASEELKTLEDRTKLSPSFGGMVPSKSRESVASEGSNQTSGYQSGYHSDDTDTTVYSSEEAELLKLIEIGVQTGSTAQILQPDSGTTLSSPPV

Row | SMILES | IC50 [1] [µM] | IC50 [2] [µM]
1 | COc1cc2nc(Cl)nc(Nc3ccc(S(=O)(=O)N(C)C)cc3)c2cc1OC | 43.3 | 67.2
2 | CN(C)S(=O)(=O)c1ccc(Nc2nc(Cl)nc3ccccc23)cc1 | > 100 | > 100
3 | CS(=O)(=O)c1ccc(Nc2nc(Cl)nc3cc4c(cc23)OCO4)cc1 | > 100 | > 100
4 | COc1cc2nc(Cl)nc(Nc3ccc(N(C)C)cc3)c2cc1OC | 39.3 | 36
5 | NS(=O)(=O)c1ccc(Nc2nc(Cl)nc3cc4c(cc23)OCO4)cc1 | 26.9 | 34.6
6 | CN(C)c1ccc(Nc2nc(Cl)nc3cc4c(cc23)OCO4)cc1 | > 100 | > 100
7 | COc1cc2nc(Cl)nc(Nc3ccc(C(=O)O)cc3)c2cc1OC | > 100 | > 100
8 | COc1cc2nc(Cl)nc(Nc3ccc(S(C)(=O)=O)cc3)c2cc1OC | > 100 | 61.5
9 | O=S(=O)(Nc1nccs1)c1ccc(Nc2nc(Cl)nc3cc4c(cc23)OCO4)cc1 | > 100 | > 100
10 | COc1cc2nc(Cl)nc(Nc3ccc(S(=O)(=O)O)cc3)c2cc1OC | > 100 | > 100

The next molecules have a lower IC50 [1] than those just listed; values first:

Row | IC50 [1] [µM] | IC50 [2] [µM] | SMILES
11 | 1.02 | 2.37 | COc1cc2nc(Cl)nc(Nc3ccc(S(N)(=O)=O)cc3)c2cc1OC
12 | 23.4 | 18.3 | CN(C)S(=O)(=O)c1ccc(Nc2nc(Cl)nc3cc4c(cc23)OCO4)cc1
13 | 2.1 | 4.3 | COc1cc2nc(Cl)nc(Nc3ccc(O)cc3)c2cc1OC
14 | 7.79 | 9.7 | COc1cc2nc(Cl)nc(Nc3ccc(S(=O)(=O)Nc4nccs4)cc3)c2cc1OC
15 | 1.99 | 37.6 | COc1cc2nc(Cl)nc(Nc3ccc(NC(C)=O)cc3)c2cc1OC
16 | 0.85 | 1.63 | CNS(=O)(=O)c1ccc(Nc2nc(Cl)nc3cc(OC)c(OC)cc23)cc1
17 | 1.17 | 0.9 | COc1cc2nc(Cl)nc(Nc3ccc(C(N)=O)cc3)c2cc1OC

Reference: ChEMBL document CHEMBL3098085, “Novel 2-chloro-4-anilino-quinazoline derivatives as EGFR and VEGFR-2 dual inhibitors” (Eur J Med Chem, 2014)
